Data reported in publication PMC8151276, “An Integrated Approach toward NanoBRET Tracers for Analysis of GPCR Ligand Engagement” (Molecules, 2021).

Columns and labels:
Format in all cases: binding
CCR3 = target: T1, CCR3 (Homo sapiens, UniProt P51677); assay: NanoBRET screen HiBiT-CCR3 in HEK293
T1 construct: purchased Promega (in-house HiBiT-GPCR construct library, NanoBRET)
T1 sequence (P51677 1-355): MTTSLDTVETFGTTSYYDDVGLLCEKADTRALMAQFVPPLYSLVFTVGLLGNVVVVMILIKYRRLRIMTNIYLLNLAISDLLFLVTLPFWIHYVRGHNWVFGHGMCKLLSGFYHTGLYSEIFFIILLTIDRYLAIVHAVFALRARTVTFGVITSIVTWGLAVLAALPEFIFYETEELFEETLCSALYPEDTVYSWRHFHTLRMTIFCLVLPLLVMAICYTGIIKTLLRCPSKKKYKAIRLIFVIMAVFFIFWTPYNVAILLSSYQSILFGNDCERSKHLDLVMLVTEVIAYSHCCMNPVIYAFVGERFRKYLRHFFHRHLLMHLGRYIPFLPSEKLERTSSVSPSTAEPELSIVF
Description: (§1) Each tracer candidate was screened across the entire library of HiBiT-GPCR constructs using NanoBRET as the detection modality. As depicted in Figure 4A, the specificity of interactions was evaluated through decrease in BRET due to competitive displacement of a bound tracer by excess parental compound. Each tracer was analyzed for binding to each HiBiT-GPCR fusion in the absence and in the presence of competing parental compound. Briefly, HEK293 cells were transfected with HiBiT-GPCR constructs diluted into promoterless DNA to reduce expression and maximize translocation to the cell surface. Each tracer candidate was then screened at concentrations of 1 μM and 0.1 μM across cells expressing these fusions. Cells were treated for 1.5 h with tracer either alone or in the presence of 20 μM competing parental compound (i.e., control). BRET was measured upon addition of purified LgBiT and subsequent complementation with HiBiT genetically fused to a GPCR. The specificity of interactions was assessed through a decrease in BRET signal due to competitive displacement of the bound tracer. To further gauge the robustness of these interactions, the fold response over the control (i.e., BRETtracer/BRETcontrol) was calculated. We chose a 1.5-fold response, which translates to ≥7-fold signal over noise as the minimal threshold required to score an interaction as positive. […]. Below we highlight the screening results obtained for our exemplary fluorescent tracers based on Clozapine, Amitriptyline and AZD1283.
(§2) HiBiT-GPCR DNA constructs were diluted in 10 mM Tris pH 8 to a final concentration of 0.01 μg/μL, arrayed in 96-well plates and stored at −20 °C. For transfection, HEK293 cells were suspended in Opti-MEM (without phenol red) supplemented with 2% fetal bovine serum (Seradigm) and 100 units/mL penicillin–streptomycin (Gibco) at a final concentration of 220,000 cells/mL and dispensed into white 96-well plates at 90 μL/well. Subsequent transfections and screens were carried using an Agilent Bravo Automated Liquid Handling Platform. First, the 96-well HiBiT DNA arrays were diluted 25-fold in Opti-MEM (without serum or phenol red) to a final concentration of 0.0004 μg/μL and 20 μL of the diluted DNAs were transferred into new 96-well plates. Next, promoterless carrier DNA (1 μg/μL) was diluted 25-fold (0.04 μg/μL) and then dispensed into the diluted arrays at 20 μL/well. Following brief mixing, Viafect transfection reagent (Promega) diluted 16-fold into Opti-MEM was dispensed into the plates at 40 μL/well. After mixing by pipetting, plates were incubated for 10 min on the pipetting station deck. The DNA-transfection reagent complexes were then added to plates containing cells. To facilitate the screen, 10 μL of DNA-transfection reagent complexes were added in duplicates to the top 4 and bottom 4 rows, resulting in two identical 48-well arrays per plate. Plates with transfected cells were incubated for 18–20 h at 37 °C/5% CO2. A screen of each tracer across the entire library using two different concentrations requires duplicate plates of transfected cells. Depending on the number of tracers being screened, transfections can be scaled up using the same ratios. The next day, for each tracer, four 20× screening solutions in tracer dilution buffer (Promega) were prepared: two duplicates at final concentration of 20 μM and two duplicates at a final concentration of 2 μM. A competing unmodified compound was added to one of each duplicate at a final concentration of 400 μM. The four resulting solutions were diluted 4-fold in Opti-MEM without serum or phenol red to generate 5× solutions (5 µM and 0.5 µM tracer +/− 100 μM competing compound). To screen the library, a BioTek MultiFlo FX liquid dispenser was used to dispense 22.5 µL of tracer solution to the top 4 rows and 22.5 µL tracer + competing compound solution to the 4 bottom rows. Plates were briefly mixed on an orbital shaker and incubated for 1.5 h at room temperature. […]

CCR5 = target: T2, CCR5 (Homo sapiens, UniProt P51681); assay: NanoBRET screen HiBiT-CCR5 in HEK293
T2 construct: purchased Promega (in-house HiBiT-GPCR construct library, NanoBRET)
Description: as §1, §2

CNR1 = target: T3, CNR1 (Homo sapiens, UniProt P21554); assay: NanoBRET screen HiBiT-CNR1 in HEK293
T3 construct: purchased Promega (in-house HiBiT-GPCR construct library, NanoBRET)
Description: as §1, §2

MC4R = target: T4, MC4R (Homo sapiens, UniProt P32245); assay: NanoBRET screen HiBiT-MC4R in HEK293
T4 construct: purchased Promega (in-house HiBiT-GPCR construct library, NanoBRET)
Description: as §1, §2

[1] = tracer at 1μM, listed as amitriptyline-b-2-NB590

T4 sequence (P32245 whole entry): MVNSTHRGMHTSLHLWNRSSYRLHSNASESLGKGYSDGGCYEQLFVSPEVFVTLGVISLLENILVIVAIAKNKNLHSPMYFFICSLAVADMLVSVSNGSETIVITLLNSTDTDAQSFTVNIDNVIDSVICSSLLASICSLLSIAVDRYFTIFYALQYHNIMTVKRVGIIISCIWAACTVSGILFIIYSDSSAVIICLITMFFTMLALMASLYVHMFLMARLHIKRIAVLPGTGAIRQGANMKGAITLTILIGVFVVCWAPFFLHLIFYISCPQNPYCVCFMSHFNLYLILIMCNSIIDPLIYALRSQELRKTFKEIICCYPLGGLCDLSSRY
T2 sequence (P51681 whole entry): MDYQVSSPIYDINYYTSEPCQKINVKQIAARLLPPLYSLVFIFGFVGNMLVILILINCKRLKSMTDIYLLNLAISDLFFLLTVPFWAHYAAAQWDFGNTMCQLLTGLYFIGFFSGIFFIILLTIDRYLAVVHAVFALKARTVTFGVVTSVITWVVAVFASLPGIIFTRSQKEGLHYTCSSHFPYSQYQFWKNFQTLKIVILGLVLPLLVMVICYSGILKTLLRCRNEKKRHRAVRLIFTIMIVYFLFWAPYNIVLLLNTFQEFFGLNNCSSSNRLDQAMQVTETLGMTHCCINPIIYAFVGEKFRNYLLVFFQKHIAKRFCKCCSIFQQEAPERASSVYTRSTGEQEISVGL
T3 sequence (P21554 whole entry): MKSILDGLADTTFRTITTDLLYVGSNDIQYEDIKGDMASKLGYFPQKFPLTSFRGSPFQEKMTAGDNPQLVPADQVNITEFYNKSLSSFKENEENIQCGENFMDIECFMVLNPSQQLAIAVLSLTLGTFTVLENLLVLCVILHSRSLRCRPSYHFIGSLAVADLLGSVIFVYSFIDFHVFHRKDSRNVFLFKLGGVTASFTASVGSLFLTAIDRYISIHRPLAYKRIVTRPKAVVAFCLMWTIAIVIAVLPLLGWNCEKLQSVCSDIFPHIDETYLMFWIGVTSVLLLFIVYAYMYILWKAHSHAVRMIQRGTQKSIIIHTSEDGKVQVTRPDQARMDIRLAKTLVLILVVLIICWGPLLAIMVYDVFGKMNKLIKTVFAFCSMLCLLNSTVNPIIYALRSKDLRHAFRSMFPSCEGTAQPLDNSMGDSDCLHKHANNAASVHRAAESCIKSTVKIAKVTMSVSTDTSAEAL

| Compound | NanoBRET Fold Response (CCR3; CCR3, tracer 0.1μM) | NanoBRET Fold Response (CCR3; CCR3, tracer 1μM) | NanoBRET Fold Response (CCR5; CCR5, tracer 0.1μM) | NanoBRET Fold Response (CCR5; CCR5, tracer 1μM) | NanoBRET Fold Response (CNR1; CNR1, tracer 0.1μM) | NanoBRET Fold Response (CNR1; CNR1, tracer 1μM) | NanoBRET Fold Response (MC4R; MC4R, tracer 0.1μM) | NanoBRET Fold Response (MC4R; MC4R, tracer 1μM) | also measured |
| --- | --- | --- | --- | --- | --- | --- | --- | --- | --- |
| Cc1nc2n(c(=O)c1CCN1CCC(c3noc4cc(F)ccc34)CC1)CCCC2OC(=O)NCCOCCOCCOCCOCCNC(=O)CCc1ccc2n1[B-](F)(F)[N+]1=C(c3ccc[nH]3)C=CC1=C2 (stereo not drawn) [Risperidone-2-NB590] | 1.06 | 1.27 | 0.96 | 0.90 | 1.00 | 1.02 | 1.03 | 1.05 | – |
| CCOC(=O)c1cc(C#N)c(N2CCC(C(=O)NS(=O)(=O)Cc3ccccc3/C=C/C(=O)NCCNC(=O)CCc3ccc4n3[B-](F)(F)[N+]3=C(c5ccc[nH]5)C=CC3=C4)CC2)nc1C [AZD1283-1-NB590] | – | – | – | – | – | – | – | – | NanoBRET Fold Response (CCR3; CCR3, 0.1μM): 0.96; NanoBRET Fold Response (CCR3; CCR3, 1μM): 1.02; NanoBRET Fold Response (CCR5; CCR5, 0.1μM): 1.02; NanoBRET Fold Response (CCR5; CCR5, 1μM): 1.04; NanoBRET Fold Response (CNR1; CNR1, 0.1μM): 0.97; NanoBRET Fold Response (CNR1; CNR1, 1μM): 0.51; NanoBRET Fold Response (MC4R; MC4R, 0.1μM): 0.98; NanoBRET Fold Response (MC4R; MC4R, 1μM): 1.01 |
| Cc1cc2c(s1)Nc1ccccc1N=C2N1CCN(CCCNC(=O)CCOCCOCCOCCOCCNC(=O)CCc2ccc3n2[B-](F)(F)[N+]2=C(c4ccc[nH]4)C=CC2=C3)CC1 [Olanzapine-a-2-NB590] | 1.19 | 1.22 | 1.00 | 0.89 | 0.99 | 1.05 | 1.00 | 1.07 | – |
| COc1ccccc1N1CCN(CCCCN2C(=O)c3ccc(CNC(=O)CCOCCNC(=O)c4ccc(CNC(=O)CCc5ccc6n5[B-](F)(F)[N+]5=C(c7ccc[nH]7)C=CC5=C6)cc4)cc3C2=O)CC1 [NAN-190-3-NB590] | 1.02 | 1.02 | 0.95 | 1.03 | 1.10 | 1.01 | 1.05 | 0.83 | – |
| CC(C)N(CC[C@H](c1ccccc1)c1cc(CCNC(=O)CCOCCOCCOCCOCCNC(=O)CCc2ccc3n2[B-](F)(F)[N+]2=C(c4ccc[nH]4)C=CC2=C3)ccc1O)C(C)C [Tolterodine-2-NB590] | 1.63 | 1.01 | 1.03 | 1.01 | 1.03 | 1.14 | 1.07 | 1.00 | – |
| CN(C)CCC=C1c2ccccc2CCc2ccc(C(=O)NCCNC(=O)CCOCCOCCOCCOCCNC(=O)CCc3ccc4n3[B-](F)(F)[N+]3=C(c5ccc[nH]5)C=CC3=C4)cc21 [Amitriptyline-b-2-NB590] | – | – | – | – | 1.03 | 1.04 | – | – | NanoBRET Fold Response (CCR3; tracer at 0.1μM): 0.90; NanoBRET Fold Response (CCR3; [1]): 1.27; NanoBRET Fold Response (CCR5; tracer at 0.1μM, listed as amitriptyline-b-2-NB590): 1.14; NanoBRET Fold Response (CCR5; [1]): 1.07; NanoBRET Fold Response (MC4R; tracer at 0.1μM): 1.00; NanoBRET Fold Response (MC4R; tracer at 1μM): 1.02 |
| O=C(CCOCCOCCOCCOCCNC(=O)CCc1ccc2n1[B-](F)(F)[N+]1=C(c3ccc[nH]3)C=CC1=C2)NCCCN1CCN(C2=Nc3ccccc3Oc3ccc(Cl)cc32)CC1 [Loxapine-a-2-NB590] | 1.02 | 1.02 | 1.00 | 1.34 | 0.72 | 0.29 | 1.04 | 1.04 | – |
| CN(C)CCC=C1c2ccccc2CCc2ccc(C(=O)NCCNC(=O)CCOCCOCCOCCOCCNC(=O)CCc3ccc4n3[B-](F)(F)[N+]3=C(c5ccc[nH]5)C=CC3=C4)cc21 [Amitriptyline-a-2-NB590] | – | – | – | – | – | – | – | – | NanoBRET Fold Response (CCR3; tracer at 0.1μM): 1.02; NanoBRET Fold Response (CCR3; tracer at 1μM): 0.95; NanoBRET Fold Response (CCR5; tracer at 0.1μM): 0.99; NanoBRET Fold Response (CCR5; tracer at 1μM): 1.01 |
| O=C(CCc1ccc2n1[B-](F)(F)[N+]1=C(c3ccc[nH]3)C=CC1=C2)NCCOCCOCCNC(=O)OCCOCCN1CCN(C2=Nc3ccccc3Sc3ccccc32)CC1 [Quetiapine-a-2-NB590] | 1.11 | 0.98 | 0.95 | 0.85 | 1.00 | 1.00 | 0.97 | 1.06 | – |
| COc1ccccc1N1CCN(CCCCN2C(=O)c3ccc(CNC(=O)CCOCCOCCOCCOCCNC(=O)CCc4ccc5n4[B-](F)(F)[N+]4=C(c6ccc[nH]6)C=CC4=C5)cc3C2=O)CC1 [NAN-190-2-NB590] | 1.08 | 1.11 | 0.95 | 1.03 | 1.02 | – | 0.97 | 1.01 | – |
| CN1CCN(C2=Nc3cc(Cl)ccc3N(CC(=O)NCCOCCOCCOCCOCCNC(=O)CCc3ccc4n3[B-](F)(F)[N+]3=C(c5ccc[nH]5)C=CC3=C4)c3ccccc32)CC1 [Clozapine-c-2-NB590] | – | – | – | – | – | – | – | – | NanoBRET Fold Response (CCR3; CCR3, 0.1μM tracer): 0.97; NanoBRET Fold Response (CCR3; CCR3, 1μM tracer): 0.85; NanoBRET Fold Response (CCR5; CCR5, 0.1μM tracer): 0.98; NanoBRET Fold Response (CCR5; CCR5, 1μM tracer): 0.95; NanoBRET Fold Response (CNR1; CNR1, 0.1μM tracer): 0.99; NanoBRET Fold Response (CNR1; CNR1, 1μM tracer): 1.05; NanoBRET Fold Response (MC4R; MC4R, 0.1μM tracer): 1.02; NanoBRET Fold Response (MC4R; MC4R, 1μM tracer): 1.06 |
| COc1ccc2[nH]c(-c3ccc(CNC(=O)CCOCCOCCOCCOCCNC(=O)CCc4ccc5n4[B-](F)(F)[N+]4=C(c6ccc[nH]6)C=CC4=C5)cc3)c(CCNC(C)=O)c2n1 [AzomelatoninICO9-2-NB590] | – | – | – | – | – | – | – | – | NanoBRET Fold Response (CCR3; 0.1μM tracer): 1.40; NanoBRET Fold Response (CCR3; 1μM tracer): 1.25; NanoBRET Fold Response (CCR5; 0.1μM tracer): 1.31; NanoBRET Fold Response (CCR5; 1μM tracer): 0.98; NanoBRET Fold Response (CNR1; 0.1μM tracer): 0.99; NanoBRET Fold Response (CNR1; 1μM tracer): 1.02; NanoBRET Fold Response (MC4R; 0.1μM tracer): 0.92; NanoBRET Fold Response (MC4R; 1μM tracer): 0.98 |
| CN(CCC=C1c2ccccc2CCc2ccccc21)C(=O)CCOCCOCCOCCOCCNC(=O)CCc1ccc2n1[B-](F)(F)[N+]1=C(c3ccc[nH]3)C=CC1=C2 [Amitriptyline-e-2-NB590] | – | – | – | – | – | – | – | – | NanoBRET Fold Response (CCR3; tracer at 1μM): 0.86; NanoBRET Fold Response (CCR5; tracer at 1μM): 0.97 |
